Test results: article PMC9558053, “Development of a novel high-throughput screen for the identification of new inhibitors of protein S-acylation” (The Journal of Biological Chemistry, 2022)

Molecular target: T1, human zDHHC7 (Homo sapiens, UniProt Q9NXF8)
T1 construct: expressed in transfected cells; host or cells: HEK293T
T1 sequence (Q9NXF8 1-308): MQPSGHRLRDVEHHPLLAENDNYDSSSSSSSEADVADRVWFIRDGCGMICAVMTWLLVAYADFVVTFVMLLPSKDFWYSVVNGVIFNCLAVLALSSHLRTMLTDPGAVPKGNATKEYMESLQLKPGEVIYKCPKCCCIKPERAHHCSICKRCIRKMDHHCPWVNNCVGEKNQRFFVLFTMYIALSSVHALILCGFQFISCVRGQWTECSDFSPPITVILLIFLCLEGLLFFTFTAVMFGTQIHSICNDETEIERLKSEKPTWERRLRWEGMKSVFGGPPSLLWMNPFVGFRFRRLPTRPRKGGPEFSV
Test: GFP-SNAP25b S-acylation in HEK293T cells co-expressing zDHHC7
Type: cell-based
Details: in cellulo HEK293T, compound 25 μM; for inhibition at 25 µM: HEK-293T, read-out: SNAP25 S-acylation inhibition (%), zDHHC7
Procedure: We next investigated whether the identified compounds were effective at inhibiting zDHHC enzyme isoforms other than zDHHC2 (Fig. 6 and Table 1). […] We therefore treated cells coexpressing GFP-SNAP25 and each of these zDHHC enzymes with 25 μM of TTZ-1 and TTZ-2 and studied the subsequent effect on SNAP25 S-acylation. […] Importantly, the level of enzyme expression was unaffected by the compounds. […] As any major differences in the expression levels of the different enzymes could in theory contribute to the apparent differential effects of TTZ-1 and TTZ-2, we directly compared the expression of zDHHC2, zDHHC3, zDHHC7, zDHHC15, and zDHHC17 when transfected in HEK293T cells together with GFP-SNAP25.
Figure 6 Activity of TTZ-1 and TTZ-2 against SNAP25 S-acylation by human zDHHC2, zDHHC3, zDHHC7, zDHHC15, and zDHHC17 expressed in mammalian cells.A–E, HEK293T cells were transfected with a plasmid encoding GFP-SNAP25b together with either a control plasmid pEF-BOS-HA (pEF) or a plasmid encoding either HA-tagged human zDHHC2 (zD2) (A), zDHHC3 (zD3) (B), zDHHC7 (zD7) (C), zDHHC15 (zD15) (D), or zDHHC17 (zD17) (E) for 24 h. Cells were then preincubated for 4 h with TTZ-1 or TTZ-2 (25 μM final) or DMSO control before metabolic labeling with 100 μM C16:0-azide for 4 h. Cells were lysed, and proteins having incorporated C16:0-azide were labeled by click chemistry with an alkyne-IR800 dye. Protein samples were then resolved by SDS-PAGE and transferred to nitrocellulose membranes that were first stained with an infrared-680 total protein stain. Membranes were then destained and probed with an anti-HA antibody (IR680), followed by an anti-GFP antibody (IR680). Representative images are shown, and panels are presented in the following order (from top to bottom): click chemistry signal (Click [IR800]), GFP and HA immunoblots (IR680), and Total Protein Stain (IR680). Positions of the molecular mass markers (in kilodalton) are indicated on the right side of the membranes. Three independent experiments were performed either in duplicate or in triplicate, and the quantification data were gathered on the graphs below each set of membranes. […] Filled circles represent individual samples. […] Filled circles represent individual samples. Statistical analysis (ANOVA) was performed to test whether there was a significant difference between the zDHHC expression of cells treated with DMSO as a control versus similar samples treated with TTZ-1 or TTZ-2 (∗∗p < 0.01). F, samples from A, B, C, D, and E (expressing GFP-SNAP25 and HA-tagged zDHHC enzymes and treated with DMSO) were loaded on an SDS-PAGE gel and transferred to a nitrocellulose membrane. The membrane was probed for the expression of the HA-tagged enzymes with an anti-HA antibody (IR680). […]

## CCCCCCCOc1ccc(C(=O)Nc2cccc3c2OC(c2nnn[nH]2)CN3)cc1 (stereo not shown) [TTZ-1, N-(2-(1H-Tetrazol-5-yl)-3,4-dihydro-2H-benzo[b][1,4]oxazin-8-yl)-4-(heptyloxy)benzamide]
  inhibition at 25 µM: 14 ± 7%
  SNAP25 S-acylation inhibition (%), zDHHC7: no significant effect

## O=C(Nc1cccc2c1OC(c1nnn[nH]1)CN2)c1ccc(OCCCCc2ccccc2)cc1 (stereo not shown) [TTZ-2, N-(2-(1H-Tetrazol-5-yl)-3,4-dihydro-2H-benzo[b][1,4]oxazin-8-yl)-4-(4-phenylbutoxy)benzamide]
  inhibition at 25 µM: 13 ± 7%
  SNAP25 S-acylation inhibition (%), zDHHC7: no significant effect
